Measured values taken from US6426093B1, “Synergistic biocidal activity if ternary complexes of negatively-charged biocides (component A), transition metal ions (component B), and neutral chelators (component C)” (Yissum Research Development Company of the Hebrew …, priority 1998, dated 2002).

Legend:
E. coli = E. coli inactivation, survival by colony-forming ability; format: cell-based
Protocol: A sample of bacteria from the stock solution was diluted 100-fold in “reaction buffer” to a final concentration of 0.6 OD600 (4.8×10^6 cells/ml). Various agents were added to the bacteria following 15 minutes of preincubation at 37° C. Aliquots were removed at indicated time points into “termination buffer” to stop the reaction, and diluted by a factor of 50 to 10^6. Samples from each dilution were then plated on LB agar and grown overnight at 37° C. Each sample was plated at least five times. The colonies formed were then counted. Survival curves were evaluated from colony counts. Each experiment was repeated at least three times, and the mean values and standard error of triplicates were calculated.
In the experiments shown in FIG. 3, all the incubation mixtures contained glucose (0.5% w/v) and MgSO4 (1 mM) in HEPES buffer (10 mM, pH=7.4), and bacteria (4.8×10^6 cells/ml). The cells were exposed to the combination of PCP (0.5 mM) and Fe(OP)3 (5 μM)—designated open triangles; or with the addition of DMSO (5%)—designated closed triangles; or with SOD (50 U/ml)—designated open circles. The results presented in Table 1, which were obtained using the experimental conditions and methods described above in this example, show the effect of different concentrations of PCP and copper complex and their combinations on the inactivation of E. coli.

[1] = system: Bone marrow-derived mast cells (MC-9 line); assay: Killing of mast cells, survival by trypan blue method; format: cell-based, mice; settings: 30 minutes
Protocol: Bone marrow-derived mast cells (MC-9 line) were obtained from the femora of mice (line C57BL/6). The cells were cultured at 37° C. in humidified atmosphere containing 5% of CO2 in RPMI-1640, supplemented with 10% fetal calf serum, 2 mM L-glutamine, 100 U/ml penicillin, 100 μg/ml streptomycin, and 50 μM β-2-mercaptoethanol. Mast cells were grown (14 days), washed and resuspended in reaction medium (only RPMI-1640) and treated for 30 minutes as indicated above. The survival was determined by the trypan blue method.

SMILES: [Cu+2].c1cnc2c(c1)ccc1cccnc12.c1cnc2c(c1)ccc1cccnc12 [Cu^II (OP)2]
- Survival (%) (E. coli; Cu^II (OP)2 1 μM): 99.5%

SMILES: [Fe+2].c1cnc2c(c1)ccc1cccnc12.c1cnc2c(c1)ccc1cccnc12.c1cnc2c(c1)ccc1cccnc12 [Fe^II (OP)3]
- Survival (%) ([1]; Fe^II (OP)3 100 (unit not given)): 95.4%

SMILES: Oc1c(Cl)c(Cl)c(Cl)c(Cl)c1Cl [PCP, Pentachlorophenol]
- Survival (%) (E. coli; PCP 0.4 mM): 95.6%
- Survival (%) ([1]; PCP 0.5 mM): 90.5%

SMILES: [Cu+2].c1cnc2c(c1)ccc1cccnc12.c1cnc2c(c1)ccc1cccnc12.c1cnc2c(c1)ccc1cccnc12 [[Cu^II (OP)3]^2+complex, 1,10-phenanthroline-copper [Cu^II (OP)3]^2+complex]
- activity relative to the analogous iron complex (E. coli; in combination with PCP, bacterial inactivation): 100 times
